{
  "source": "patent US8481546B2",
  "about": "“CGRP receptor antagonist” (Bristol-Myers Squibb Company, priority 2010, dated 2013)",
  "key": {"[1]": {"test_system": "olfactory epithelium (nasal tissues)", "assay": "One-week comparative intranasal irritation study in rats (Compound I vs Compound III): nasal histology and tolerability", "format": "in vivo", "details": "1 week", "method": "This study was conducted to compare potential nasal irritation of Compound I to Compound III when given intranasally to male rats for 1 week. Male rats (10/group) were instilled intranasally with Compound I or Compound III solutions ([…] in 225 mM succinic acid, 0.02% benzalkonium chloride, 1.25% anhydrous dextrose, pH 5.8-6.2) once daily at a dose volume of 100 μL/nostril. Using this dosing paradigm, fixed doses of 5, 15 or 35 mg of test article were delivered daily. As a consequence, dosages normalized to body weight decreased with time as the rats grew. One control group was given succinate vehicle and a sham control group was given saline by intranasal instillation. Parameters evaluated included clinical observations, body weight, food consumption, toxicokinetics, and histological evaluation of nasal tissues."}, "[2]": {"test_system": "olfactory epithelium (nasal turbinates)", "format": "in vivo, rats", "excerpt": "Compound I and Compound II were also compared directly for intranasal irritation. […] The only endpoint evaluated in this study was histological evaluation of the nasal turbinates."}, "[3]": {"details": "nasal instillation 5 mg (0.357 mg/cm^2) once daily"}, "[4]": {"details": "nasal instillation 15 mg (1.07 mg/cm^2) once daily"}, "[5]": {"details": "nasal instillation 35 mg (2.50 mg/cm^2) once daily"}, "[6]": {"details": "12.5 μL/nostril, 75 mg/ml, 1.875 mg/rat/day (0.134 mg/cm^2)"}, "[7]": {"details": "12.5 μL/nostril, 175 mg/ml, 4.375 mg/rat/day (0.313 mg/cm^2)"}, "[8]": {"details": "25 μL/nostril, 75 mg/ml, 3.75 mg/rat/day (0.268 mg/cm^2)"}, "[9]": {"details": "25 μL/nostril, 175 mg/ml, 8.75 mg/rat/day (0.625 mg/cm^2)"}, "[10]": {"details": "100 μL/nostril, 75 mg/ml, 15 mg/rat/day (1.071 mg/cm^2)"}, "[11]": {"details": "100 μL/nostril, 175 mg/ml, 35 mg/rat/day (2.500 mg/cm^2)"}},
  "note": "Where two headings read alike, the source gives them in different places.",
  "data": [
    {"smiles": "Cc1cc(C[C@@H](NC(=O)N2CCC(c3cc4ccccc4[nH]c3=O)CC2)C(=O)N2CCC(N3CCCCC3)CC2)cc2cn[nH]c12", "note": "[Compound III, reference compound]", "values": [
      {"measurement": "Olfactory Epithelial Atrophy, incidence of severity Marked (number of rats)", "setting": "[1]; [3]", "result": 0},
      {"measurement": "Olfactory Epithelial Atrophy, incidence of severity Mild (number of rats)", "setting": "[1]; [3]", "result": 2},
      {"measurement": "Olfactory Epithelial Atrophy, incidence of severity Minimal (number of rats)", "setting": "[1]; [3]", "result": 6},
      {"measurement": "Olfactory Epithelial Atrophy, incidence of severity Moderate (number of rats)", "setting": "[1]; [3]", "result": 0},
      {"measurement": "Olfactory Epithelial Atrophy, incidence of severity None (number of rats)", "setting": "[1]; [3]", "result": 1},
      {"measurement": "Olfactory Epithelial Atrophy, incidence of severity Marked (number of rats)", "setting": "[1]; [4]", "result": 0},
      {"measurement": "Olfactory Epithelial Atrophy, incidence of severity Mild (number of rats)", "setting": "[1]; [4]", "result": 2},
      {"measurement": "Olfactory Epithelial Atrophy, incidence of severity Minimal (number of rats)", "setting": "[1]; [4]", "result": 0},
      {"measurement": "Olfactory Epithelial Atrophy, incidence of severity Moderate (number of rats)", "setting": "[1]; [4]", "result": 6},
      {"measurement": "Olfactory Epithelial Atrophy, incidence of severity None (number of rats)", "setting": "[1]; [4]", "result": 1},
      {"measurement": "Olfactory Epithelial Atrophy, incidence of severity Marked (number of rats)", "setting": "[1]; [5]", "result": 1},
      {"measurement": "Olfactory Epithelial Atrophy, incidence of severity Mild (number of rats)", "setting": "[1]; [5]", "result": 2},
      {"measurement": "Olfactory Epithelial Atrophy, incidence of severity Minimal (number of rats)", "setting": "[1]; [5]", "result": 0},
      {"measurement": "Olfactory Epithelial Atrophy, incidence of severity Moderate (number of rats)", "setting": "[1]; [5]", "result": 3},
      {"measurement": "Olfactory Epithelial Atrophy, incidence of severity None (number of rats)", "setting": "[1]; [5]", "result": 3}
    ]},
    {"smiles": "Cc1cc(C[C@@H](NC(=O)N2CCC(C3Cc4cccc(F)c4NC3=O)CC2)C(=O)N2CCC(N3CCCCC3)CC2)cc2cn[nH]c12", "note": "(stereo partly shown) [Compound II]", "values": [
      {"measurement": "Olfactory epithelial toxicity, number of animals with severity Mild", "setting": "[2]; [6]", "result": 1},
      {"measurement": "Olfactory epithelial toxicity, number of animals with severity None", "setting": "[2]; [6]", "result": 3},
      {"measurement": "Olfactory epithelial toxicity, number of animals with severity Slight", "setting": "[2]; [6]", "result": 1},
      {"measurement": "Olfactory epithelial toxicity, number of animals with severity Mild", "setting": "[2]; [7]", "result": 1},
      {"measurement": "Olfactory epithelial toxicity, number of animals with severity Minimal", "setting": "[2]; [7]", "result": 1},
      {"measurement": "Olfactory epithelial toxicity, number of animals with severity None", "setting": "[2]; [7]", "result": 3},
      {"measurement": "Olfactory epithelial toxicity, number of animals with severity Minimal", "setting": "[2]; [8]", "result": 2},
      {"measurement": "Olfactory epithelial toxicity, number of animals with severity None", "setting": "[2]; [8]", "result": 2},
      {"measurement": "Olfactory epithelial toxicity, number of animals with severity Slight", "setting": "[2]; [8]", "result": 1},
      {"measurement": "Olfactory epithelial toxicity, number of animals with severity Minimal", "setting": "[2]; [9]", "result": 3},
      {"measurement": "Olfactory epithelial toxicity, number of animals with severity None", "setting": "[2]; [9]", "result": 1},
      {"measurement": "Olfactory epithelial toxicity, number of animals with severity Slight", "setting": "[2]; [9]", "result": 1},
      {"measurement": "Olfactory epithelial toxicity, number of animals with severity Mild", "setting": "[2]; [10]", "result": 1},
      {"measurement": "Olfactory epithelial toxicity, number of animals with severity Slight", "setting": "[2]; [10]", "result": 4},
      {"measurement": "Olfactory epithelial toxicity, number of animals with severity Mild", "setting": "[2]; [11]", "result": 2},
      {"measurement": "Olfactory epithelial toxicity, number of animals with severity Moderate", "setting": "[2]; [11]", "result": 3}
    ]}
  ]
}
